Results: US20100291230A1 (priority 2006, published 2010)
Values joined by “and” are separate entries in the source; they are usually repeats but may differ in a detail not shown here. Equal values may be shown once.

What was measured:
Settings in all cases: in vivo
Meloidogyne javanica = system: Meloidogyne javanica
[1] = system: nematode inoculum (eggs and larvae) in soil; parameters: species or system Meloidogyne javanica
[2] = system: root-knot nematodes Meloidogyne javanica

SMILES | reduction of galling infection (Meloidogyne javanica) | further results
N[C@@H](CC(=O)O)C(=O)O [Aspartic acid] | most effective | 
N[C@@H](CS)C(=O)O [Cysteine] | most effective | 
NCCCC[C@H](N)C(=O)O [Lysine] | most effective | 
CBr [Methyl Bromide] |  | control of nematode infection in the roots [1]: highly effective in controlling nematode infection in the roots
O=[PH](O)O [phosphite, H3PO3] |  | galling incidence and galling index (nematode control) (Meloidogyne javanica): higher efficacy in controlling nematodes as compared with urea
OP(O)O [phosphorous acid] |  | galling incidence [2]: 20% and 10%
